Reference: ChEMBL document CHEMBL1201862, “PubChem BioAssay data set” (2004)
Calls of active or inactive are those of the source. Unless noted, the calls are words filed in the database; no cut-off is given here.

How the values were obtained:
[1] = target: Glycogen synthase kinase-3 beta (Homo sapiens, UniProt P49841); experiment: Inhibition of Human GSK-3 beta Activity Measured in Biochemical System Using Microfluidics - 2063-05_Inhibitor_Dose_DryPowder_Activity_Set2. [Related pubchem assays (depositor defined):AID2709]
Sequence of Glycogen synthase kinase-3 beta (P49841 whole entry): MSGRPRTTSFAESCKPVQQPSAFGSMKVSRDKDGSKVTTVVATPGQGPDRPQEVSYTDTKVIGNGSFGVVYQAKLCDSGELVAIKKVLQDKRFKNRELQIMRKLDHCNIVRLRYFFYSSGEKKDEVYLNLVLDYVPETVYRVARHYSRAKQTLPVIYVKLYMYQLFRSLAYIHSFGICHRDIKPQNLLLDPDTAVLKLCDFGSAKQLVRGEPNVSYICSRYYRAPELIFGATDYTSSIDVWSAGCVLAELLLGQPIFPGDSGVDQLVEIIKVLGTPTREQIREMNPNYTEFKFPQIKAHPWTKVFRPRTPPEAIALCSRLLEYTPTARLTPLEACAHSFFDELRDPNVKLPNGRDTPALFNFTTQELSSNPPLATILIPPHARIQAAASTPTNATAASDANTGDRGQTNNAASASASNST

[2] = target: Glycogen synthase kinase-3 alpha (Homo sapiens, UniProt P49840); experiment: Inhibition of Human GSK-3 alpha Activity Measured in Biochemical System Using Microfluidics - 2063-06_Inhibitor_Dose_DryPowder_Activity_Set2. [Related pubchem assays (depositor defined):AID2709]
Sequence of Glycogen synthase kinase-3 alpha (P49840 whole entry): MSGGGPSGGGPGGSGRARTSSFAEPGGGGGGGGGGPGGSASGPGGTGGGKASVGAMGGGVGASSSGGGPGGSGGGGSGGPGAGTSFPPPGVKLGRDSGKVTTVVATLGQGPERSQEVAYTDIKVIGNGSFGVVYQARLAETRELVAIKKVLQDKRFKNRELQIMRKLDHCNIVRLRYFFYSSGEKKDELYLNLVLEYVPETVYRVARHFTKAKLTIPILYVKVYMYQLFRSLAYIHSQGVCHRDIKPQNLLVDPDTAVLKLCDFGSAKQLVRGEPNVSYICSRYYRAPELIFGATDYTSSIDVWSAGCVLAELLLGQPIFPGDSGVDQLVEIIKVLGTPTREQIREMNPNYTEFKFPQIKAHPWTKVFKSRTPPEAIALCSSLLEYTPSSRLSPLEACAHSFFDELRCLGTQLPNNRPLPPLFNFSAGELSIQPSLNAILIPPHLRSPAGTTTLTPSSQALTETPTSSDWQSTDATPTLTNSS

[3] = target: Cyclin-dependent kinase 5/CDK5 activator 1 (Homo sapiens, UniProt Q00535); experiment: CDK5-p25 kinase inhibitors, specificity check, dose response, selectivity assay for GSK-3 alpha inhibitor project, biochemical, microfluidic mobility shift, dry powder (AID 588430)
Sequence of Cyclin-dependent kinase 5/CDK5 activator 1 (Q00535 whole entry): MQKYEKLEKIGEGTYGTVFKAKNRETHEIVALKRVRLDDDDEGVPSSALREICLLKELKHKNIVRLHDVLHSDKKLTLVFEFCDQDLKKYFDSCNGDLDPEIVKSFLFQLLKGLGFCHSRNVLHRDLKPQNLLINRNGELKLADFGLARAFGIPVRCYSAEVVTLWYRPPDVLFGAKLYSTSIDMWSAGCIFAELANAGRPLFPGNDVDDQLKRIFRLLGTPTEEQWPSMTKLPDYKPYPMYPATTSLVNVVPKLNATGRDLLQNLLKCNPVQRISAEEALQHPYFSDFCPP
Sequence of Cyclin-dependent kinase 5/CDK5 activator 1 (Q15078 whole entry, further chain): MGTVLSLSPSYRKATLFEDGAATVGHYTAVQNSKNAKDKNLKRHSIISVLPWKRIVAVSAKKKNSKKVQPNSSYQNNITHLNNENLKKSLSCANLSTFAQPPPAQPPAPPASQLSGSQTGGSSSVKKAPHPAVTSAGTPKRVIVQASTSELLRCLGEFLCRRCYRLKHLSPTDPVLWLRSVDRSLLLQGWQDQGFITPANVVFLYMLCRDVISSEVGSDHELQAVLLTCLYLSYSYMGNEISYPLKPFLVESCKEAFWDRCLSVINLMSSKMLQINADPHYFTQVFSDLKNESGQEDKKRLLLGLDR

X-box-binding protein 1 = X-box-binding protein 1 (Homo sapiens, UniProt P17861); type: functional, Cricetulus griseus;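 further: confirmatory dose-response counter-screen serving a CHOP assay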
Sequence of X-box-binding protein 1 (P17861 whole entry): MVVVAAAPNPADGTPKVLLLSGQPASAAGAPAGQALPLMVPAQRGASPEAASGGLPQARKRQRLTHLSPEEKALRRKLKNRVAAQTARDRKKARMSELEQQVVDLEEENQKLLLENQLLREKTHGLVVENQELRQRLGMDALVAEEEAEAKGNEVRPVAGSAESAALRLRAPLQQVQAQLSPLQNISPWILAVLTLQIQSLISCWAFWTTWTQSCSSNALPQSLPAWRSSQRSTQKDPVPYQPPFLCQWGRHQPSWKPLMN

Insulin-degrading enzyme [4] = target: T1, Insulin-degrading enzyme (Homo sapiens, UniProt P14735); experiment: activators of recombinant IDE enzyme, dose response, counter-screen for IDE activator project, biochemical, fluorescence polarization (AID 588681)
T1 sequence (P14735 whole entry): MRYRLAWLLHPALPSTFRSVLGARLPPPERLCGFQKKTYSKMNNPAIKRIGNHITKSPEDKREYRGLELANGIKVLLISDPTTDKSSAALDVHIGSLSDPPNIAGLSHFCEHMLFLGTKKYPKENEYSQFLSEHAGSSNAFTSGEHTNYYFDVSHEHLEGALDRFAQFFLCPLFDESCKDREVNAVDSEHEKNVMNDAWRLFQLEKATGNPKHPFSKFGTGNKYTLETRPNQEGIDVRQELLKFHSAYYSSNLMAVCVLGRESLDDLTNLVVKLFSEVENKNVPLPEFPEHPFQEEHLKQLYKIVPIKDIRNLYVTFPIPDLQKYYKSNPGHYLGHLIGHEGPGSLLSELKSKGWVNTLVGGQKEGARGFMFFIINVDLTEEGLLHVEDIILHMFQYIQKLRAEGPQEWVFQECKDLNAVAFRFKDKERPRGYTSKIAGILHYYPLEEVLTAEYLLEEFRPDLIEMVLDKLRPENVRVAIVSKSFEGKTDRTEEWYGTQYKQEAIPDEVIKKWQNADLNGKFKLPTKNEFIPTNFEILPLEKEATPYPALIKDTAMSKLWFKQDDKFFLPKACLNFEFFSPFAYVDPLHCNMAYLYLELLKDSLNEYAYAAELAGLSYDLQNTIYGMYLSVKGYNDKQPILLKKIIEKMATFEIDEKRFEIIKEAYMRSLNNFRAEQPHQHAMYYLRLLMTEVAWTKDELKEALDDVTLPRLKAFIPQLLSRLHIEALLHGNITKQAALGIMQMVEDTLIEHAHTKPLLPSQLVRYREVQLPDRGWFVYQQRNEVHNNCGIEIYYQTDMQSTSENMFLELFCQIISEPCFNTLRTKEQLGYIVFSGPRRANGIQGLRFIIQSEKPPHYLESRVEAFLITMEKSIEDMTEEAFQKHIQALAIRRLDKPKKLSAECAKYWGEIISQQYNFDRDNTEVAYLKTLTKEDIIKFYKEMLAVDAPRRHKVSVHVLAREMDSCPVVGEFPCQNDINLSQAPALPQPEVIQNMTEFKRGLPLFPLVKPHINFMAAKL

HEK293 [5] = experiment: HEK cell cytotoxicity by LDH release, dose response, cytotoxicity control for IDE activator project, fluorescence, HEK cells (AID 588440); type: functional, cell-based; details: Homo sapiens;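 further: cytotoxicity by LDH release measuring loss of membrane integrity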
Insulin-degrading enzyme [6] = target: T1, Insulin-degrading enzyme; experiment: activators of endogenous IDE in HEK cells, dose response, cell-based, fluorescence polarization (AID 588439); type: functional
HEK293 [7] = experiment: optical interference in Abeta FP readout, dose response, artefact control for IDE activator project, biochemical, fluorescence polarization (AID 588442); type: functional, cell-based; details: Homo sapiens
[8] = Vero cell cytotoxicity, dose response, cytotoxicity control for M. tuberculosis growth inhibitor project, Vero cells, purified and synthesized compounds, set 4 (AID 504854); type: functional; details: Mycobacterium tuberculosis
[9] = target: T2, Corticotropin-releasing factor receptor 2/Corticotropin-releasing factor-binding protein (Homo sapiens, UniProt P24387+Q13324); experiment: activators of CRF receptor 2 with binding protein – uHTS hits, confirmation (AID 602473); type: functional; details: read-out: EC50_Mean
T2 sequence (Q13324 whole entry): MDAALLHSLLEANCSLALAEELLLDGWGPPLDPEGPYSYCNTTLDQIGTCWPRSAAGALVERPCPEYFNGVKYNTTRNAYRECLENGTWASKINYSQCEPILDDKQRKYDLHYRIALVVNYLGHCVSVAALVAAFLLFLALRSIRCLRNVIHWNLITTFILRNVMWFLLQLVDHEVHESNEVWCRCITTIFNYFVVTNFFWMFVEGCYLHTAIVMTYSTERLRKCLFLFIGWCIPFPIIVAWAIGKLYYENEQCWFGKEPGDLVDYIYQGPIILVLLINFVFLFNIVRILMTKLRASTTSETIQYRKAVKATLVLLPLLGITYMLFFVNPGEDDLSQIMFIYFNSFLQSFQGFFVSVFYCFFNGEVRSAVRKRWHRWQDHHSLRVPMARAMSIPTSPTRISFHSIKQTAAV
T2 sequence (P24387 whole entry): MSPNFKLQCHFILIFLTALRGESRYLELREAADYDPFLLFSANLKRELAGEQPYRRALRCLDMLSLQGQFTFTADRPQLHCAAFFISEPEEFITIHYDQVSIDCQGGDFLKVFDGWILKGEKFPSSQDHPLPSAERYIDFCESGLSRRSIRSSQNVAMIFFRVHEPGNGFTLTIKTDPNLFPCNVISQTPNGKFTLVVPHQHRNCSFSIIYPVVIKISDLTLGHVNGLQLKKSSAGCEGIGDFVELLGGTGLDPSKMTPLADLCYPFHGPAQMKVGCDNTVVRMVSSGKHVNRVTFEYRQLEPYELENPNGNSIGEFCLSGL

CAAX prenyl protease 2 [10] = target: T3, CAAX prenyl protease 2 (Saccharomyces cerevisiae S288c, UniProt Q03530); experiment: yeast Rce1 CaaX protease inhibitors, dose response, biochemical, plate reader, dry powder retest (AID 588851)
T3 sequence (Q03530 whole entry): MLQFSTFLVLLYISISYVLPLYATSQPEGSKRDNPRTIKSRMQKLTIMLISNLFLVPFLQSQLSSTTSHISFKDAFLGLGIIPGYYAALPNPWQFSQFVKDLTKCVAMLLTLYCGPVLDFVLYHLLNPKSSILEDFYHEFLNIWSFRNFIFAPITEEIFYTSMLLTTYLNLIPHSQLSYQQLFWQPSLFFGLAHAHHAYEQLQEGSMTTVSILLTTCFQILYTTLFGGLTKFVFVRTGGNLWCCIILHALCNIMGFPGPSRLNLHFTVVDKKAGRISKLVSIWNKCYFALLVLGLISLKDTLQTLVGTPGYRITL

[11] = target: T2, Corticotropin-releasing factor receptor 2/Corticotropin-releasing factor-binding protein; experiment: Dose Response confirmation of uHTS hits for small molecule antagonists of the CRF-binding protein and CRF-R2 receptor complex.; type: functional; details: read-out: IC50_Mean
CAAX prenyl protease 2 [12] = target: T3, CAAX prenyl protease 2; type: biochemical
[13] = CRF-BP/CRF-R2 complex antagonists, dose response, cell-based, uHTS hits, 384-well (AID 651639); type: functional, Homo sapiens; details: read-out: IC50_Mean
[14] = target: Multidrug resistance protein CDR1 (Candida albicans, UniProt P43071); experiment: CaCDR1 efflux pump inhibitors in yeast, dose response, S. cerevisiae AD1-8u, singleplex, Cherry Pick1 hits (AID 588606); type: functional
Sequence of Multidrug resistance protein CDR1 (P43071 whole entry, looked up): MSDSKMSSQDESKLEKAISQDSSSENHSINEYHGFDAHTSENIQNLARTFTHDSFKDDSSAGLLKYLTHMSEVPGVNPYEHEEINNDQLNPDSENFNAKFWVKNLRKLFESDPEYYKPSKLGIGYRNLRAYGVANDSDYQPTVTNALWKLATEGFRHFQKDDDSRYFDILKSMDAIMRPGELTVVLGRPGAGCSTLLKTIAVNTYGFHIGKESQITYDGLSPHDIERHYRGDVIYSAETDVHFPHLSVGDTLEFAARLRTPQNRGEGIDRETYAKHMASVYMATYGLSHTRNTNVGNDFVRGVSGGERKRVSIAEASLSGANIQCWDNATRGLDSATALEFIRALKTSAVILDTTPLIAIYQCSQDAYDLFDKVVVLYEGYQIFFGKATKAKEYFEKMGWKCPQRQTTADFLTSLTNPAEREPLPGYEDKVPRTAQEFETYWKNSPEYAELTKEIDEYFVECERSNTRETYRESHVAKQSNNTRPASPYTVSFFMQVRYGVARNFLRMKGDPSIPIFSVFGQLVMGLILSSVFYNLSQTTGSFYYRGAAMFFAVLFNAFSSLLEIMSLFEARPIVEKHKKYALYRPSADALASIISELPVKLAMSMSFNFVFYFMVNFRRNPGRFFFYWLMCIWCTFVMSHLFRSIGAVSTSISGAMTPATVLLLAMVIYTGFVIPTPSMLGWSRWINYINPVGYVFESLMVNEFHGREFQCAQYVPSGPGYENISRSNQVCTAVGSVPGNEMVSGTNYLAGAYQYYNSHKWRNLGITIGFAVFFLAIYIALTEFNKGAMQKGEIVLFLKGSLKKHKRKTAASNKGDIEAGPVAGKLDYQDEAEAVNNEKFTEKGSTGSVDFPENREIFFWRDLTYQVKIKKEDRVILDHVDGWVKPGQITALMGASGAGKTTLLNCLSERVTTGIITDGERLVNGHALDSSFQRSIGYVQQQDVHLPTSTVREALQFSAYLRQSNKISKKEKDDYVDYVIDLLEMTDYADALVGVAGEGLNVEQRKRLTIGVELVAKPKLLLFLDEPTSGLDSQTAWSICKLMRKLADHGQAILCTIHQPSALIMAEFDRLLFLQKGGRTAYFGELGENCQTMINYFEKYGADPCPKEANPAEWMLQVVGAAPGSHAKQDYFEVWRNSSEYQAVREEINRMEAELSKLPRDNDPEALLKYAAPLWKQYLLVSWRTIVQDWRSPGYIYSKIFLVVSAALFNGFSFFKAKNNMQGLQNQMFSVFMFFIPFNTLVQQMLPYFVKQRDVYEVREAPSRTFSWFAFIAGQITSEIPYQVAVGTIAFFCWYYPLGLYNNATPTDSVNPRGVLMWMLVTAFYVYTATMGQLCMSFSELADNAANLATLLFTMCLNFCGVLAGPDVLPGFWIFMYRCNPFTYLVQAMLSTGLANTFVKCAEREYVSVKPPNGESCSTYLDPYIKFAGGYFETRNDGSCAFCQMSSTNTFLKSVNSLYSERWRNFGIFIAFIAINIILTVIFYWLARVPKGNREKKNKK

[15] = C. albicans growth with fluconazole, confirmation, fluorescence, retest (AID 2467); type: functional, cell-based
Candida albicans [16] = experiment: growth inhibition of resistant C. albicans, dose response, CaCi-8, fluconazole, Alamar Blue, dry powder (AID 488807); type: functional, organism-based
[17] = NIH-3T3 fibroblast cytotoxicity, dose response, cytotoxicity control, cell-based, fluorescence, Alamar Blue, secondary assay (AID 2327); type: functional;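 further: NIH-3T3 mouse fibroblasts cultured with fluconazole at 8 µg/mL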
Candida albicans [18] = experiment: single-agent growth inhibition of C. albicans, dose response, counter-screen for antifungal drug resistance project, C. albicans CaCi-2, dry powder (AID 488802); type: functional, organism-based
[19] = FACS-based assay to assess parasite growth inhibition 48 hr Measured in Cell-Based System Using Flow Cytometry - 2126-03_Inhibitor_Dose_DryPowder_Activity. [Related pubchem assays (depositor defined):AID488774]; type: functional; details: Homo sapiens
[20] = A cell-based HTS for delayed death inhibitors of the malarial parasite plastid Measured in Microorganism System Using Plate Reader - 2126-01_Inhibitor_Dose_DryPowder_Activity.; type: functional, organism-based
Erythrocyte = experiment: FACS-based assay to assess parasite growth inhibition 96 hr Measured in Cell-Based System Using Flow Cytometry - 2126-05_Inhibitor_Dose_DryPowder_Activity. [Related pubchem assays (depositor defined):AID488774]; type: functional; details: Homo sapiens
[21] = A cell-based HTS for delayed death inhibitors of the malarial parasite plastid Measured in Microorganism System Using Plate Reader - 2126-02_Inhibitor_Dose_DryPowder_Activity.; type: functional, organism-based
[22] = target: ALK tyrosine kinase receptor (Homo sapiens, UniProt Q9UM73); type: functional;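 further: ALK tested as one member of a kinase panel screen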
[23] = target: Cyclin-dependent kinase 19 (Homo sapiens, UniProt Q9BWU1); experiment: Navigating the Kinome. Panel member name: CDC2L6; type: functional
Sequence of Cyclin-dependent kinase 19 (Q9BWU1 whole entry): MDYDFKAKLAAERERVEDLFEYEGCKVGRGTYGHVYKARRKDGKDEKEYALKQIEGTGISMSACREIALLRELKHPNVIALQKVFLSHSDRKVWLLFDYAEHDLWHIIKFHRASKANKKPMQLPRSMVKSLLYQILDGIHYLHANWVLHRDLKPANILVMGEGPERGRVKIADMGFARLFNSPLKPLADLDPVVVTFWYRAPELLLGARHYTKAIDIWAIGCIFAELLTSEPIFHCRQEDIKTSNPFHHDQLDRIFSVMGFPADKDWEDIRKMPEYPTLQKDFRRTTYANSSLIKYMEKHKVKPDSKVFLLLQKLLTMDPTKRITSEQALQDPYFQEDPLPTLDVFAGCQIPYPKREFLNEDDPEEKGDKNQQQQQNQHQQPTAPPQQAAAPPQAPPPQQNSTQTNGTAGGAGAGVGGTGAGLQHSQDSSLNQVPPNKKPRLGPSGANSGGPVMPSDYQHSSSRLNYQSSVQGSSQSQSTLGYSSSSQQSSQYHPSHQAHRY

[24] = Vero cell cytotoxicity, cytotoxicity control for M. tuberculosis inhibitor project, purified and synthesized samples, set 8 (AID 602431); type: functional; details: Mycobacterium tuberculosis
[25] = HepG2 cell cytotoxicity, cytotoxicity control, set 6 (AID 602432); type: functional; details: Mycobacterium tuberculosis
[26] = THP-1 cell cytotoxicity, cytotoxicity control, set 6 (AID 602433); type: functional; details: Mycobacterium tuberculosis
[27] = target: G-protein coupled receptor 55 (Homo sapiens, UniProt Q9Y2T6); experiment: GPR55 agonists via beta-arrestin recruitment, primary screen, imaging, U2OS cells, beta-arrestin-GFP redistribution (AID 1961); type: functional
Sequence of G-protein coupled receptor 55 (Q9Y2T6 whole entry): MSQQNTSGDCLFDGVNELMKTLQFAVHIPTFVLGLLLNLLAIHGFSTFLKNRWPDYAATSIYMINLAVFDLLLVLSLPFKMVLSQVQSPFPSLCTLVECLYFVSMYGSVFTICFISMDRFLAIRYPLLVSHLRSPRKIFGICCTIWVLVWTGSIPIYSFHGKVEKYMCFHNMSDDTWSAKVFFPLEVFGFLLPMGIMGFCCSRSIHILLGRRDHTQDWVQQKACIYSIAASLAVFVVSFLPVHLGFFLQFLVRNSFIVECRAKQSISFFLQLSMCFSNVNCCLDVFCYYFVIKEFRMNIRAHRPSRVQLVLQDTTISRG

[28] = target: T4, High affinity choline transporter 1 (Homo sapiens, UniProt Q9GZV3); experiment: CHT activators, dose response, cell-based, 10-point CRC, membrane potential dye (AID 602376); type: functional
T4 sequence (Q9GZV3 whole entry): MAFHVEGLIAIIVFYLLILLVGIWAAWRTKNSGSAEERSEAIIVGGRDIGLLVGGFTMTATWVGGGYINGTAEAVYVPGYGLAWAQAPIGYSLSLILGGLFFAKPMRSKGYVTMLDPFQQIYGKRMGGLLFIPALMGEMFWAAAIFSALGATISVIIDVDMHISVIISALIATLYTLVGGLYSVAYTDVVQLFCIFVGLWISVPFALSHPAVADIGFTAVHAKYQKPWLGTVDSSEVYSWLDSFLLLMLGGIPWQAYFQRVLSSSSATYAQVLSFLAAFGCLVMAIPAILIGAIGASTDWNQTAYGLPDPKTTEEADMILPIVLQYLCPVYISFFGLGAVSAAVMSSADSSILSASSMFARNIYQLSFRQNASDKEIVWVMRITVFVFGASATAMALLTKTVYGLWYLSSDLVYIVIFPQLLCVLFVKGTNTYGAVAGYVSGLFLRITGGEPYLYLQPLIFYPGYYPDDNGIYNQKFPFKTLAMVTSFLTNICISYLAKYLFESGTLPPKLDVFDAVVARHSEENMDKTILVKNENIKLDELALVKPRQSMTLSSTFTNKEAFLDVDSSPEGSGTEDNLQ

[29] = target: Protein disulfide-isomerase (Homo sapiens, UniProt P07237); experiment: PDI inhibitors, insulin aggregation turbidity, dose response, biochemical, absorbance, cherry-picked samples (AID 602350); type: functional
Sequence of Protein disulfide-isomerase (P07237 whole entry): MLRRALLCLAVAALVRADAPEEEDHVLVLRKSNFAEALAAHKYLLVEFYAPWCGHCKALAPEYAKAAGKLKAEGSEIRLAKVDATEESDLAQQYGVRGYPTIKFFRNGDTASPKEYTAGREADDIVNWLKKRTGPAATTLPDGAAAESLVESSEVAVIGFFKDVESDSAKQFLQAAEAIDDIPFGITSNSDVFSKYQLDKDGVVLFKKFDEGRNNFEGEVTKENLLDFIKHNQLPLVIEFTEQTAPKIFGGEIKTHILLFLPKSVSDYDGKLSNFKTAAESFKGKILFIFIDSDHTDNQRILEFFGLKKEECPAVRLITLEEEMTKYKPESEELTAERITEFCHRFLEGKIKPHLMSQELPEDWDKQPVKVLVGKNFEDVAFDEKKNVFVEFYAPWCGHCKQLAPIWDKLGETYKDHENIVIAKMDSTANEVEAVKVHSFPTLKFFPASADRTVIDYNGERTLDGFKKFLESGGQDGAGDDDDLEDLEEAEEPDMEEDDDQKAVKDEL

O=C(Nc1cccc(Cl)c1)Nc1ccnc(-c2cccnc2)n1
AC50 [1]: 0.716 µM (active)
AC50 [2]: 3.97 µM (active)
AC50 [3]: 20.8 µM (active)
Absolute IC50 (XBP1) (X-box-binding protein 1): 10 µM

Cc1ccc2c(c1)c1c(n2CC(O)CNC2CCCC2)CCCC1 (stereo unspecified)
EC50 (Insulin-degrading enzyme [4]): > 54.7 µM (inactive)
IC50 (HEK293 [5]): 61.9 µM (inactive)
EC50 (Insulin-degrading enzyme [6]): > 54.7 µM (inactive)
EC50 (HEK293 [7]): > 55.9 µM (inactive)

CC(C)CCNC(=O)CSc1nc2c(c(=O)[nH]1)CCC2
CC50 [8]: > 100 µM (active)

CCOc1ccc(-n2c(SCc3ccc([N+](=O)[O-])cc3)nnc2-c2ccc(OC)cc2)cc1
EC50 [9]: > 53 µM (inactive)
AC50 (CAAX prenyl protease 2 [10]): 1.12 µM (active)
IC50 [11]: 1.68 µM (active)
AC50 (CAAX prenyl protease 2 [12]): 0.102 µM (active)
IC50 [13]: > 20 µM (inactive)

CC(C)=C1C2CCC1C1C(=O)N(c3nc(-c4ccc(C(C)C)cc4)c(C)s3)C(=O)C21 (stereo unspecified)
EC50 [14]: 3.79 µM (active)

CC1CCN(C(=O)Cn2c3ccccc3c3nc4n(c(=O)c32)CCS4)CC1
EC50 [15]: 0.979 µM (active)
AC50 (Candida albicans [16]): 1.97 µM (active)
EC50 [17]: > 160 µM (inconclusive)
AC50 (Candida albicans [18]): 108 µM (active)

COc1ccc(COC[C@H](C)N2C[C@@H](C)[C@H](CN(C)S(=O)(=O)c3ccc(F)cc3)OCCCC[C@H](C)Oc3ccc(NC(=O)Nc4ccccc4)cc3C2=O)cc1
AC50 [19]: 0.0008 µM (active)
AC50 [20]: 0.000294 µM (active)
AC50 (Erythrocyte): 0.001 µM (active)
AC50 [21]: 0.00018 µM (active)

O=C(O)c1c(Cl)ccc2cc(-n3cccc3)cnc12
Ki [22]: 3.98 µM (active)
Ki [23]: > 100 µM (inactive)

COc1ccc(N2CCN(C(=O)c3ccc(CNc4c(N5CCCC(C)C5)c(=O)c4=O)cc3)CC2)cc1 (stereo unspecified)
CC50 [24]: > 100 µM (inconclusive)
CC50 [25]: > 50 µM (inconclusive)
CC50 [26]: > 98.4 µM (active)

CSc1ccc(-c2sc(Nc3ccccc3)n[n+]2-c2ccccc2)cc1
EC50 [27]: > 32 µM (inactive)
EC50 [28]: 7.33 µM (active)

CCN(CC)CCNC(=O)C(C(=O)c1ccccc1)n1ccccc1=O (stereo unspecified)
AC50 [29]: 2.16 µM (active)
